row,melting point [°C],SMILES
1,257.5 to 259.1,"O=C(O)CCc1ccnc(-c2nc(=O)c3ccc(Br)cc3s2)c1 [Example 188, 3-[2-(7-Bromo-4-oxo-4H-1,3-benzothiazin-2-yl)-4-pyridyl]propionic acid]"
2,168.5 to 169.3,"Cc1cc(CCC(=O)OC(C)(C)C)nc(-c2nc(=O)c3ccccc3s2)c1 [Example 189, tert-Butyl 3-[4-methyl-6-(4-oxo-4H-1,3-benzothiazin-2-yl)-2-pyridyl]propanoate]"
3,162.3 to 163,"Cc1cc(CCC(=O)OC(C)(C)C)nc(-c2nc(=O)c3ccc(Cl)cc3s2)c1 [Example 190, tert-Butyl 3-[6-(7-chloro-4-oxo-4H-1,3-benzothiazin-2-yl)-4-methyl-2-pyridyl]propanoate]"
4,244.6 to 245.5,"Cc1cc(CCC(=O)O)nc(-c2nc(=O)c3ccccc3s2)c1 [Example 191, 3-[4-Methyl-6-(4-oxo-4H-1,3-benzothiazin-2-yl)-2-pyridyl]propionic acid]"
5,232.2 to 233.2,"Cc1cc(CCC(=O)O)nc(-c2nc(=O)c3ccc(Cl)cc3s2)c1 [Example 192, 3-[6-(7-Chloro-4-oxo-4H-1,3-benzothiazin-2-yl)-4-methyl-2-pyridyl]propionic acid]"
6,222.2 to 223.4,"O=c1nc(-c2cccc(-c3cccs3)n2)sc2ccccc12 [Example 193, 2-[6-(2-Thienyl)-2-pyridyl]-4H-1,3-benzothiazin-4-one]"
7,217.9 to 218.4,"O=c1nc(-c2cccc(-c3ccco3)n2)sc2ccccc12 [Example 194, 2-[6-(2-Furyl)-2-pyridyl]-4H-1,3-benzothiazine-4-one]"
8,271.3 to 272.7,O=c1nc(-c2cccc(-c3cnco3)n2)sc2ccccc12 [Example 195]
9,253 to 254,"O=c1nc(-c2cccc(-n3cccn3)n2)sc2ccccc12 [Example 196, 2-[6-(1H-Pyrazol-1-yl)-2-pyridyl]-4H-1,3-benzothiazine-4-one]"
10,195.4 to 197,"O=c1nc(-c2cccc(-c3ccccc3)n2)sc2ccccc12 [Example 197, 2-(6-Phenyl-2-pyridyl)-4H-1,3-benzothiazine-4-one]"
11,200.1 to 201.1,"COc1ccc(-c2cccc(-c3nc(=O)c4ccccc4s3)n2)cc1 [Example 198, 2-[6-(4-Methoxyphenyl)-2-pyridyl]-4H-1,3-benzothiazine-4-one]"
12,222.1 to 223.9,"O=c1nc(-c2cccc(-c3ccccn3)n2)sc2ccccc12 [Example 199, 2-[6-(2,2′-Bipyridyl)]-4H-1,3-benzothiazine-4-one]"
13,234.9 to 235.2,"Cc1ccnc(-c2cc(C)cc(-c3nc(=O)c4ccccc4s3)n2)c1 [Example 200, 2-[6-(4,4′-Dimethyl-2,2′-bipyridyl)]-4H-1,3-benzothiazine-4-one]"
14,213.8 to 215.2,"O=C(NCCO)c1cccc(-c2nc(=O)c3ccccc3s2)n1 [Example 201, N-(2-Hydroxyethyl)-6-(4-oxo-4H-1,3-benzothiazin-2-yl)-2-pyridinecarboxamide]"
15,160 to 162.1,"CC(C)(C)OC(=O)NCc1cccc(-c2nc(=O)c3ccccc3s2)n1 [Example 202, tert-Butyl [6-(4-Oxo-4H-1,3-benzothiazin-2-yl)-2-pyridyl]methylcarbamate]"
16,199.2 to 200.4,"CC(=O)NCc1cccc(-c2nc(=O)c3ccccc3s2)n1 [Example 204, N-[[6-(4-Oxo-4H-1,3-benzothiazin-2-yl)-2-pyridyl]methyl]ace tamide]"
17,199 to 199.8,"CCC(=O)NCc1cccc(-c2nc(=O)c3ccccc3s2)n1 [Example 205, N-[[6-(4-Oxo-4H-1,3-benzothiazin-2-yl)-2-pyridyl]methyl]propanamide]"
18,188.6 to 189.2,"CC(C)C(=O)NCc1cccc(-c2nc(=O)c3ccccc3s2)n1 [Example 206, 2-Methyl-N-[[6-(4-oxo-4H-1,3-benzothiazin-2-yl)-2-pyridyl]methyl]propanamide]"
19,213.9 to 214.7,"O=C(NCc1cccc(-c2nc(=O)c3ccccc3s2)n1)c1ccccc1 [Example 207, N-[[6-(4-Oxo-4H-1,3-benzothiazin-2-yl)-2-pyridyl]methyl]benzamide]"
20,208.5 to 209,"O=C(NCc1cccc(-c2nc(=O)c3ccccc3s2)n1)c1cccs1 [Example 208, N-[[6-(4-Oxo-4H-1,3-benzothiazin-2-yl)-2-pyridyl]methyl]-2-thiophenecarboxamide]"
21,226.4 to 227.4,"O=C(NCc1cccc(-c2nc(=O)c3ccccc3s2)n1)C(F)(F)F [Example 209, 2,2,2-Trifluoro-N-[[6-(4-oxo-4H-1,3-benzothiazin-2-yl)-2-pyridyl]methyl]acetamide]"
22,191.6 to 192.8,"CSCCC(=O)NCc1cccc(-c2nc(=O)c3ccccc3s2)n1 [Example 210, 3-(Methylthio)-N-[[6-(4-oxo-4H-1,3-benzothiazin-2-yl)-2-pyridyl]methyl]propanamide]"

row,melting point [°C],SMILES
1,188.1 to 189.5,"CS(=O)(=O)NCc1cccc(-c2nc(=O)c3ccccc3s2)n1 [Example 211, N-[[6-(4-Oxo-4H-1,3-benzothiazin-2-yl)-2-pyridyl]methyl]methanesulfonamide]"
2,170 to 171,"CCS(=O)(=O)NCc1cccc(-c2nc(=O)c3ccccc3s2)n1 [Example 212, N-[[6-(4-Oxo-4H-1,3-benzothiazin-2-yl)-2-pyridyl]methyl]ethanesulfonamide]"
3,206.7 to 207.5,"O=c1nc(-c2cccc(CNS(=O)(=O)c3ccccc3)n2)sc2ccccc12 [Example 213, N-[[6-(4-Oxo-4H-1,3-benzothiazin-2-yl)-2-pyridyl]methyl]benzenesulfonamide]"
4,175.2 to 176.3,"CN(C)C(=O)NCc1cccc(-c2nc(=O)c3ccccc3s2)n1 [Example 216, N,N-Dimethyl-N′-[[6-(4-oxo-4H-1,3-benzothiazin-2-yl)-2-pyridyl]methyl]urea]"
5,170.2 to 170.8,"CC(C)(C)OC(=O)NCCc1cccc(-c2nc(=O)c3ccccc3s2)n1 [Example 217, tert-Butyl 2-[6-(4-oxo-4H-1,3-benzothiazin-2-yl)-2-pyridyl]ethylcarbamate]"
6,159.8 to 161,"CC(C)(C)OC(=O)NCCc1ccnc(-c2nc(=O)c3ccccc3s2)c1 [Example 218, tert-Butyl 2-[2-(4-oxo-4H-1,3-benzothiazin-2-yl)-4-pyridyl]ethylcarbamate]"
7,168.2 to 169.2,"CC(C)(C)OC(=O)NCCc1ccnc(-c2nc(=O)c3ccc(Cl)cc3s2)c1 [Example 219, tert-Butyl 2-[2-(7-chloro-4-oxo-4H-1,3-benzothiazin-2-yl)-4-pyridyl]ethylcarbamate]"
8,201.7 to 202.6,"O=C(NCCc1cccc(-c2nc(=O)c3ccccc3s2)n1)c1ccccc1 [Example 224, N-[2-[6-(4-Oxo-4H-1,3-benzothiazin-2-yl)-2-pyridyl]ethyl]benzamide]"
9,216.8 to 219.3,"O=C(NCCc1ccnc(-c2nc(=O)c3ccccc3s2)c1)c1ccccc1 [Example 225, N-[2-[2-(4-Oxo-4H-1,3-benzothiazin-2-yl)-4-pyridyl]ethyl]benzamide]"
10,206.7 to 207.9,"CC(=O)NCCc1cccc(-c2nc(=O)c3ccccc3s2)n1 [Example 226, N-[2-[6-(4-Oxo-4H-1,3-benzothiazin-2-yl)-2-pyrizyl]ethyl]acetamide]"
11,234.8 to 236.4,"O=C(NCCc1cccc(-c2nc(=O)c3ccccc3s2)n1)Nc1ccccc1 [Example 227, N-[2-[6-(4-Oxo-4H-1,3-benzothiazin-2-yl)-2-pyridyl]ethyl]-N′-phenylurea]"
12,240.3 to 242.4,"CCNC(=O)NCCc1cccc(-c2nc(=O)c3ccccc3s2)n1 [Example 228, N-Ethyl-N′-[2-[6-(4-oxo-4H-1,3-benzothiazin-2-yl)-2-pyridyl]ethyl]urea]"
13,190.2 to 191,"CN(C)C(=O)NCCc1cccc(-c2nc(=O)c3ccccc3s2)n1 [Example 229, N,N-Dimethyl-N′-[2-[6-(4-oxo-4H-1,3-benzothiazin-2-yl)-2-pyridyl]ethyl]urea]"
14,174.9 to 175.6,"CCN(CC)C(=O)NCCc1cccc(-c2nc(=O)c3ccccc3s2)n1 [Example 230, N,N-Diethyl-N′-[2-[6-(4-oxo-4H-1,3-benzothiazin-2-yl)-2-pyridyl]ethyl]urea]"
15,230.1 to 230.3,"CN(C)C(=O)Nc1cccc(-c2nc(=O)c3ccccc3s2)n1 [Example 231, N,N-Dimethyl-N′-[6-(4-oxo-4H-1,3-benzothiazin-2-yl)-2-pyridyl]urea]"
16,204.3 to 204.7,"Cc1cccc2c(=O)nc(-c3cccc(C(=O)OC(C)(C)C)n3)sc12 [Example 232, tert-Butyl 6-(8-methyl-4-oxo-4H-1,3-benzothiazin-2-yl)-2-pyridinecarboxylate]"
17,260.5 to 260.8,"Cc1cccc2c(=O)nc(-c3cccc(C(=O)O)n3)sc12 [Example 233, 6-(8-Methyl-4-oxo-4H-1,3-benzothiazin-2-yl)-2-pyridinecarboxylic acid]"
18,170.7 to 171.5,"Cc1cccc2c(=O)nc(-c3cccc(C(=O)NCCCCCCNC(=O)OC(C)(C)C)n3)sc12 [Example 234, tert-Butyl 6-[[[6-(8-methyl-4-oxo-4H-1,3-benzothiazin-2-yl)-2-pyridyl]carbonyl]amino]hexylcarbamate]"
19,280.4 to 281.1,"O=C1c2ccccc2C(=O)N1Cc1cccc(-c2nc(=O)c3ccccc3s2)n1 [Example 236, 2-[[6-(4-Oxo-4H-1,3-benzothiazin-2-yl)-2-pyridyl]methyl]-1H-isoindole-1,3(2H)-dione]"
20,193.5 to 194.2,"CCCCNC(=O)c1ccc2c(=O)nc(-c3ccccn3)sc2c1 [Example 237, N-Butyl-4-oxo-2-(2-pyridyl)-4H-1,3-benzothiazine-7-carboxamide]"
21,173.6 to 174.2,"O=C(c1ccc2c(=O)nc(-c3ccccn3)sc2c1)N1CCCC1 [Example 238, 2-(2-Pyridyl)-7-(1-pyrrolidinylcarbonyl)-4H-1,3-benzothiazine-4-one]"
22,272.1 to 274.1,"O=C(NC1CC1)c1ccc2c(=O)nc(-c3ccccn3)sc2c1 [Example 239, N-Cyclopropyl-4-oxo-2-(2-pyridyl)-4H-1,3-benzothiazine-7-carboxamide]"

# Source: patent publication US7767665B2, “1,3-benzothiazinone derivatives and use thereof” (Takeda Pharmaceutical Company Limited, priority 2001, dated 2010)
